In PubChem BioAssay (NCI):
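Method: 48-hour compound exposure of cells in 96-well plates, five concentrations, linear interpolation of endpoints. GI50 = concentration required for 50% inhibition of growth. At the TGI there is no net growth.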

Columns and labels:
Assay in all cases: NCI-60 cell line screen, 48 h
SNB-19 CNS = test system: SNB-19 CNS
HCT-15 colon = test system: HCT-15 colon
OVCAR-8 ovarian = test system: OVCAR-8 ovarian
MDA-MB-435 = test system: MDA-MB-435
MDA-N = test system: MDA-N
786-0 renal = test system: 786-0 renal
EKVX NSCLC = test system: EKVX NSCLC
CAKI-1 renal = test system: CAKI-1 renal
M14 melanoma = test system: M14 melanoma
SK-MEL-2 melanoma = test system: SK-MEL-2 melanoma
MALME-3M melanoma = test system: MALME-3M melanoma

| SMILES | TGI (SNB-19 CNS) [µM] | TGI (HCT-15 colon) [µM] | TGI (OVCAR-8 ovarian) [µM] | TGI (MDA-MB-435) [µM] | TGI (MDA-N) [µM] | TGI (786-0 renal) [µM] | TGI (EKVX NSCLC) [µM] | TGI (CAKI-1 renal) [µM] | TGI (M14 melanoma) [µM] | TGI (SK-MEL-2 melanoma) [µM] | TGI (MALME-3M melanoma) [µM] | GI50 (SNB-19 CNS) [µM] | GI50 (HCT-15 colon) [µM] | GI50 (OVCAR-8 ovarian) [µM] | GI50 (EKVX NSCLC) [µM] | GI50 (CAKI-1 renal) [µM] | GI50 (MALME-3M melanoma) [µM] | GI50 (M14 melanoma) [µM] | GI50 (SK-MEL-2 melanoma) [µM] |
| --- | --- | --- | --- | --- | --- | --- | --- | --- | --- | --- | --- | --- | --- | --- | --- | --- | --- | --- | --- |
| CCCCCCOc1ccc(C(=O)NOC)cc1 | > 100 | > 100 | > 100 | > 100 | > 100 | > 100 | > 100 | > 100 | > 100 | > 100 | – | – | – | – | – | – | – | – | – |
| Cc1cn(C2CC(O)C(CO)O2)c(=O)[nH]c1=O (stereo not given) | > 2850 | > 5000 | 4960 | > 5000 | > 5000 | > 5000 | 4950 | 4450 | > 5000 | > 5000 | > 4900 | – | – | – | – | – | – | – | – |
| O=[N+]([O-])C(/C=C(\Cl)n1nnc2ccccc21)=C(/Cl)n1nnc2ccccc21 | > 100 | > 100 | – | > 100 | > 100 | > 100 | > 100 | > 100 | > 100 | > 100 | > 100 | – | – | – | – | – | – | – | – |
| CCOC(=O)Cn1c(=O)c2nc(SC)sc2n(-c2ccccc2)c1=O | > 100 | > 100 | > 100 | – | > 100 | > 100 | > 100 | – | > 100 | > 100 | > 100 | – | – | – | – | – | – | – | – |
| CC1CCC(C(=O)O)(C(Br)C(=O)O)CC1 (stereo not given) | > 100 | > 100 | > 100 | > 100 | > 100 | > 100 | > 100 | > 100 | > 100 | > 100 | – | – | – | – | – | – | – | – | – |
| Oc1ccc([I+]c2ccccc2)cc1O | > 100 | > 100 | > 100 | 66.2 | > 100 | > 100 | > 100 | > 100 | – | – | > 100 | – | – | – | – | – | – | – | – |
| CN(C)c1ccc(S(=O)Nc2ccccc2)cc1 (stereo not given) | > 100 | > 100 | > 100 | 57.5 | – | > 100 | > 100 | – | > 100 | 89.1 | > 100 | – | – | – | – | – | – | – | – |
| COc1cc(/C=C/C(=O)CC(=O)/C=C/c2ccc(OC(=O)CCCCC3CCSS3)c(OC)c2)ccc1OC(=O)CCCCC1CCSS1 (stereo not given) | > 100 | > 100 | > 100 | > 100 | > 100 | > 100 | > 100 | – | > 100 | > 100 | > 100 | – | – | – | – | – | – | – | – |
| O=c1[nH]c(Nc2nc3ccccc3[nH]2)nc(O)c1-c1ccccc1 | > 100 | > 100 | > 100 | > 100 | > 100 | > 100 | – | > 100 | > 100 | > 100 | > 100 | – | – | – | – | – | – | – | – |
| Cc1nc(N)c(N2CCN([N+](=O)[O-])CC2)c(=O)[nH]1 | > 100 | > 100 | > 100 | > 100 | > 100 | > 100 | > 100 | – | > 100 | > 100 | > 100 | – | – | – | – | – | – | – | – |
| CSc1nsc(-c2ccccc2)[s+]1 | > 100 | > 100 | > 100 | – | – | > 100 | > 100 | > 100 | > 100 | > 100 | > 100 | – | – | – | – | – | – | – | – |
| COc1ccc(NC(=O)CC(=O)N2N=C(N3c4ccccc4Sc4ccccc43)CC2c2ccccc2)cc1 (stereo not given) | > 100 | > 100 | > 100 | > 100 | – | > 100 | > 100 | > 100 | > 100 | > 100 | – | – | – | – | – | – | – | – | – |
| CCN(CC)CCN(C(=Nc1ccccc1)N1CCOCC1)c1ccccc1 | > 100 | > 100 | > 100 | > 100 | – | > 100 | > 100 | > 100 | > 100 | > 100 | > 100 | – | – | – | – | – | – | – | – |
| Cc1ccc(-c2[nH]c(=O)n(C3OC(CO)C(O)C(O)C3O)c(=O)c2C#N)cc1 (stereo not given) | > 100 | > 100 | > 100 | > 100 | – | > 100 | > 100 | > 100 | > 100 | > 100 | – | – | – | – | – | – | – | – | – |
| CN(C)C1(N(C)C)Oc2c(c(=O)n(C)c(=O)n2C)C(c2ccc(Br)cc2)C1(F)F (stereo not given) | > 100 | > 100 | – | > 100 | – | > 100 | > 100 | > 100 | > 100 | > 100 | – | – | – | – | – | – | – | – | – |
| CO[C@H]1/C=C(/C)CCC[C@H](C)[C@H](O)[C@@H](C)C(=O)C(C)(C)[C@@H](O)CC(=O)O[C@@H]1/C(C)=C/c1csc(C)n1 | > 100 | > 100 | > 100 | – | – | – | > 100 | > 100 | > 100 | – | > 100 | 0.0486 | < 0.0128 | 0.0277 | 0.0432 | 0.0238 | 0.017 | 0.0218 | 0.0186 |
| O=C(Nc1nccs1)c1c(O)nc2sccn2c1=O | > 10 | > 10 | > 10 | > 10 | > 10 | – | > 10 | > 10 | > 10 | > 10 | > 10 | – | – | – | – | – | – | – | – |
| CCCSCC(P(=O)(O)O)P(=O)(O)O | > 100 | > 100 | > 100 | – | – | – | > 100 | > 100 | – | > 100 | > 100 | – | – | – | – | – | – | – | – |
| CCOP(=O)(OCC)C(c1ccc(F)cc1)N(C(=O)NC(F)(F)F)c1ccc(OC)cc1 (stereo not given) | > 100 | > 100 | > 100 | > 100 | > 100 | > 100 | > 100 | > 100 | > 100 | – | > 100 | – | – | – | – | – | – | – | – |
| COc1ccc(C2=N/C(=C\c3ccccc3)C(=O)O2)cc1 | > 100 | > 100 | > 100 | > 100 | – | – | > 100 | – | > 100 | > 100 | – | – | – | – | – | – | – | – | – |
| O=C(CC(C(=O)c1ccsc1)c1ccc2c(c1)OCO2)c1ccccc1 (stereo not given) | – | > 100 | > 100 | > 100 | > 100 | > 100 | > 100 | > 100 | > 100 | – | – | – | – | – | – | – | – | – | – |
| c1c[nH]c(-c2ccc(-c3ccc[nH]3)c3nsnc23)c1 | > 100 | > 76.8 | > 60.4 | > 70.9 | > 100 | > 67.6 | > 58.4 | > 100 | > 63 | > 100 | – | – | – | – | – | – | – | – | – |
